Laboratory results published in US4933336A, “Thiadiazinone, oxadiazinone and triazinone derivatives, and their use for treating acute or chronic heart disease” (Laboratoires Sobio S.A., priority 1987, dated 1990).
Like-named read-outs stand apart in the source and are kept apart here.

How the values were obtained:
[1] = system: Canine cardiac myofibrillar Ca++-dependent Mg++ ATPase; test: Measurement of myofibrillar Ca++-dependent Mg++ATPase activity (Ca++ sensitivity and maximal activity); assay type: biochemical, canine (dog); settings: pH 7.0, 21° C.
Method: 1. Measurement of myofibrillar Ca++-dependent Mg++ATPase activity
the effect on myofibrillar Ca++sensitivity and on maximal activity of myofibrillar Ca++-dependent Mg++-ATPase was determined on canine cardiac myofibrils.
(a) Contractile protein preparation
Cardiac myofibrils free of membrane contaminants were prepared from left ventricular tissue of dog hearts using a modification of the method described by SOLARO et al, Biochem. Biophys. Acta, 245, 259-262, (1971). Before centrifugration, the heart homogenate was filtered through gauze.
After Triton X-100 treatments, the myofibrillar fraction was washed once by resuspension and centrifugation in 10 volumes of 1 mM EGTA, […], 30 mM imidazole, 2 mM MgCl2, pH 7.0. The pellet was then washed three times in 10 volumes of the same buffer without EGTA. Before the last centrifugation, the suspension of myofibrils was filtered through a stainless steel sieve with 0.25 mm meshes.
Myofibrils were kept in pellet overnight. Before use, the pellet was suspended in a small amount of buffer, the protein concentration was determined by the method of BRADFORD M., Anal. Biochem., 1976, 72, 248 and adjusted in order to have a concentration between 6 and 7 mg/ml.
(b) Myofibrillar ATPase activity
Ca++-dependent myfibrillar ATPase activity was determined at 21° C., pH 7.0, by measuring the rate of release of inorganic phosphate. All assays were performed within 24 hrs. of final purification, using the method described by SOLARO and RUEGG, CIRC. RES., 51, 290-4, (1982). Reaction mixtures (4 ml) containing 0.6-0.7 mg/ml myofibrillar protein, 80 mM KCl, 20 mM imidazole, 3 mM […], 1 mM EGTA, the desired amount of CaCl2, and the indicated concentration of drug or appropriate vehicle were preincubated for 6 min. prior to assay. The amount of CaCl2 was varied between 0 and 0.9 mM and the pCA (-log free Ca++) computed using 2.514×10^6 M^-1 as the apparent affinity of Ca++for EGTA at pH 7.0.
Reactions were initiated by the addition of Na2 ATP to final concentration of 2 mM. After an incubation period of 12 min., reactions were quenched by the addition of an equal volume of ice-cold 10% trichloroacetic acid. The protein was pelleted by centrifugation (2000 g, 15 min.) and Pi was assayed in the supernatant fraction using a modification of the method described by LANZETTA et al, Anal. Biochem., 100, 95-97, (1979).
The following solutions were prepared:
(1) 3.7% ammonium heptamolybdate in 0.12N H2 SO4
(2) 0.074% malachite green oxalate in 1% polyvinylic alcohol.
the colour reagent was prepared by mixing an equal volume of solution (1) and (2) 15 min. before the assay. For the assay, 1700 μl of 1% H2 SO4 and 1 ml of colour reagent were added to 100 μl of sample. Colour development occurred at room temperature for 30 min. and was quenched by the addition of 200 μl of 1M tri-potassium citrate. The absorbance was measured at 620 millimicrons.
The effect of each compound, tested at the indicated concentration, on the relation between pCa and percent activation was determined taking 100% for the maximum ATPase activity obtained with vehicle alone. The effect on Ca++ sensitivity was quantified by measuring the shift of the pCa giving 50% of the maximal control ATPase activity.
The effect on maximal ATPase activity was expressed as the percent change of ATPase activity for pCa=5.47.

[2] = system: conscious instrumented Dog; test: Cardiotonic activity in the conscious instrumented Dog; assay type: in vivo, dog (male Beagle); settings: Canis lupus familiaris, po; for change in vivo at 3 mg/kg: 3.00 mg/kg p.o.; for change in vivo at 0.3 mg/kg: 0.30 mg/kg p.o.; for change in vivo at 0.03 mg/kg: 0.03 mg/kg p.o.; for change in vivo at 1 mg/kg: 1.00 mg/kg p.o.; for change in vivo at 0.1 mg/kg: 0.10 mg/kg p.o.; for change in vivo at 0.01 mg/kg: 0.01 mg/kg p.o.
Method: Cardiotonic activity in the conscious instrumented Dog
Male Beagle dogs, at least 2 years old, weighing 12 to 18 kg were anaesthetised with pentobarbital sodium (30 mg/kg i.v.). Respiration was maintained by a Harward pump, model 613a. The heart was exposed through a left thoracotomy and a pericardial cardle was formed. A high fidelity micromanometer (Koenigsberg P5 -P7) was inserted into left venitricular lumen through a stab incision at the apex. Wires were exteriorised to the back of the animals, placed into a size adapted jacket, and the chest closed. The experiments were conducted on the conscious dogs, 1 or 2 weeks after the surgery, when the animals had completely recovered.
Measured parameters were : first derivative of left ventricular pressure, (dP/dt, mmHg/sec); heart rate (HR, beats/min.). A control period recording of 90 min. was made with the dogs placed in a quiet room, the recordings being made outside. Compounds to be tested were administered orally in gelatin capsules and the parameters measured for 5 hrs. at least.
Results were expressed as the percentage of the maximum±SEM.

[3] = read-out: H.R. (heart rate), percentage of the maximum ± SEM
[4] = read-out: dP/dt Max (first derivative of left ventricular pressure), percentage of the maximum ± SEM

## O=C1NN=C(c2ccc3c(c2)C2(CCCS2)C(=O)N3)CS1 (stereo not drawn) [Example 20, 5'-(3,6-Dihydro-2-oxo-2H-1,3,4-thiadiazin-5-yl)-spiro [thiolane-2,3'-[3H]-indol]-2'(1'H)-one]
[1]; 3 × 10^-5 molar
  Max ATPase activity (%) (percent change of ATPase activity for pCa=5.47): -5 ± 3%
  Ca2+ sensitivity p CA50 (shift of the pCa giving 50% of the maximal control ATPase activity): 0.21 ± 0.05
[2]; [3]
  change in vivo at 3 mg/kg: 8%
[2]; [4]
  change in vivo at 3 mg/kg: 45%

## CC1SC(=O)NN=C1c1ccc2c(c1)C1(CCCS1)C(=O)N2 (stereo not drawn) [Example 21, 5'-(3,6-Dihydro-6-methyl-2-oxo-2H-1,3,4-thiadiazin-5-yl) -spiro-[thiolane-2,3'-[3H]-indol]-2'(1'H)-one]
[1]; 1 × 10^-5 molar
  Max ATPase activity (%) (percent change of ATPase activity for pCa=5.47): -7 ± 2%
  Ca2+ sensitivity p CA50 (shift of the pCa giving 50% of the maximal control ATPase activity): 0.46 ± 0.04
[2]; [3]
  change in vivo at 0.3 mg/kg: 9%
[2]; [4]
  change in vivo at 0.3 mg/kg: 42%

## CC1SC(=O)NN=C1c1ccc2c(c1)C(C)(C)C(=O)N2C (stereo not drawn) [Example 18, 1,3-Dihydro-5-(3,6-dihydro-6-methyl-2-oxo-2H-1,3,4-thiadiazin-5-yl)-1,3,3-trimethyl-2H-indol-2-one]
[1]; 3 × 10^-5 molar
  Max ATPase activity (%) (percent change of ATPase activity for pCa=5.47): +3 ± 3%
  Ca2+ sensitivity p CA50 (shift of the pCa giving 50% of the maximal control ATPase activity): 0.19 ± 0.03
[2]; [3]
  change in vivo at 0.3 mg/kg: 28%
[2]; [4]
  change in vivo at 0.3 mg/kg: 74%

## CC1SC(=O)NN=C1c1ccc2c(c1)C(C)(C)C(=O)N2 (stereo not drawn) [Example 3]
[1]; 20 × 10^-5 molar
  Max ATPase activity (%) (percent change of ATPase activity for pCa=5.47): -12 ± 2%
  Ca2+ sensitivity p CA50 (shift of the pCa giving 50% of the maximal control ATPase activity): 0.32 ± 0.06
[2]; [3]
  change in vivo at 0.03 mg/kg: 8%
[2]; [4]
  change in vivo at 0.03 mg/kg: 71%

## CC1SC(=O)NN=C1c1ccc2c(c1)C1(CCCC1)C(=O)N2C(=O)c1ccncc1 (stereo not drawn) [Example 27, 5'-(3 6-Dihydro-6-methyl-2-oxo-2H-1,3,4-thiadiazin-5-yl)-1'-[(4 pyridyl)carbonyl]-spiro[cyclopentane-1,3'-[3H]indol]-2'(1'H)-one]
[1]; 3 × 10^-5 molar
  Max ATPase activity (%) (percent change of ATPase activity for pCa=5.47): +2 ± 5%
  Ca2+ sensitivity p CA50 (shift of the pCa giving 50% of the maximal control ATPase activity): 0.47 ± 0.10
[2]; [3]
  change in vivo at 1 mg/kg: 15%
[2]; [4]
  change in vivo at 1 mg/kg: 63%

## CC1SC(=O)NN=C1c1ccc2c(c1)C1(SCCCS1)C(=O)N2 (stereo not drawn) [Example 14, 5'-(3,6-Dihydro-6-methyl-2-oxo-2H-1,3,4-thiadiazin-5-yl) -spiro[1,3-dithiane-2,3'-[3H]indol]-2(1'H)-one]
[1]; 3 × 10^-5 molar
  Max ATPase activity (%) (percent change of ATPase activity for pCa=5.47): +4 ± 1%
  Ca2+ sensitivity p CA50 (shift of the pCa giving 50% of the maximal control ATPase activity): 0.71 ± 0.09
[2]; [3]
  change in vivo at 0.3 mg/kg: 22%
[2]; [4]
  change in vivo at 0.3 mg/kg: 30%

## CSC1C(=O)Nc2ccc(C3=NNC(=O)SC3)cc21 (stereo not drawn) [Example 11, 1,3-Dihydro-5-(3,6-dihydro-2-oxo-2H-1,3,4-thiadiazin-5-yl) -3-methylthio-2H-indol-2-one]
[1]; 20 × 10^-5 molar
  Max ATPase activity (%) (percent change of ATPase activity for pCa=5.47): +1 ± 0%
  Ca2+ sensitivity p CA50 (shift of the pCa giving 50% of the maximal control ATPase activity): 0.36 ± 0.05
[2]; [3]
  change in vivo at 3 mg/kg: 7%
[2]; [4]
  change in vivo at 3 mg/kg: 51%

## CC1SC(=O)NN=C1c1ccc2c(c1)CC(C)(C)C(=O)N2 (stereo not drawn) [Example 36, 3,4-Dihydro-6-(3,6-dihydro-6-methyl-2-oxo-2H-1,3,4-thiadiazin-5-yl)-3,3-dimethyl-2(1H)-quinolinone]
[1]; 3 × 10^-5 molar
  Max ATPase activity (%) (percent change of ATPase activity for pCa=5.47): -4 ± 3%
  Ca2+ sensitivity p CA50 (shift of the pCa giving 50% of the maximal control ATPase activity): 0.33 ± 0.07
[2]; [3]
  change in vivo at 0.1 mg/kg: 7%
[2]; [4]
  change in vivo at 0.1 mg/kg: 46%

## CC(=O)N1C(=O)C(C)(C)c2cc(C3=NNC(=O)SC3C)ccc21 (stereo not drawn) [Example 7, 1-Acetyl-1,3-dihydro-5-(3,6-dihydro-6-methyl-2-oxo-H-1,3,4-thiadiazin-5-yl)3,3-dimethyl-2H-indol-2-one]
[1]; 20 × 10^-5 molar
  Max ATPase activity (%) (percent change of ATPase activity for pCa=5.47): -2 ± 3%
  Ca2+ sensitivity p CA50 (shift of the pCa giving 50% of the maximal control ATPase activity): 0.37 ± 0.06
[2]; [3]
  change in vivo at 0.01 mg/kg: 9%
[2]; [4]
  change in vivo at 0.01 mg/kg: 41%
